The values that follow come from patent publication US6964958B2, “Method of simultaneously treating sensory auditory gating deficit and associated psychosis in schizophrenia and bipolar disorder patients with mania” (priority 2001, dated 2005).

The subject of series [1] is heterozygous reeler mice (HRM). Description: Prepulse inhibition of startle (PPI) in heterozygous reeler mice. Type of series: in vivo, mouse. The settings on record: for auditory PPI deficit in HRM: heterozygous reeler mice, subcutaneous, imidazenil 0.3, 0.6 mg/kg, 115 db startle, 75 or 80 db prepulse. The source says: (§1) The startle apparatus (SR-Lab, San Diego Instruments) consisted of a Plexiglas cylinder resting on a Plexiglas frame within a ventilated soundproof enclosure. Acoustic noise bursts were presented by. speaker 24 cm above the animal. and a piezo-electric device transduced any consequent motion (flinch) within the cylinder. Two stimulus trial types 1) 115 db startle stimulus only; or 2) 115 db stimulus preceded by a 75 or 80 db prepulse 100 msec before startle simulut onset were randomly presented with a mean intertrial interval of 20 sec. Stimuli were 30 msec in duration and were presented over a constant 65 db white noise background also present during a 5-min adaptation period.
(§2) Mean peak amplitude of the flinch response within a 200 msec window following presentation of the 115 db stimulus was calculated separately for each type of startle trial. Ratios reflecting the amount of inhibition due to the prepulse were calculated by dividing the difference between mean amplitude for startle and prepulse trials by the mean for the startle trials. PPI data are commonly presented in this ratio form to control for overall level of the startle reflex itself.
Imidazenil or alprazolam was dissolved in DMSO, combined with oil, and injected subcutaneously at a volume of 0.1 ml/10 gm of body weight. The amount of DMSO was approximately 1% of total volume. Vehicle was prepared similarly and vehicle or drug was administered in counterbalanced order using a within-subject design. Following drug administration, the mouse was placed in an isolated cage for 10-15 min before being placed in the startle apparatus. Animals were tested between 11:00 hr and 15:00 hr.

Series [2] has as its system wild-type mice (WTM). Description: Prepulse inhibition of startle (PPI) in wild-type mice. Type of series: in vivo, mouse. Particulars: subcutaneous, 115 db startle, 75 or 80 db prepulse.
From the text: as §1, §2
Imidazenil or alprazolam was dissolved in DMSO, combined with oil, and injected subcutaneously at a volume of 0.1 ml/10 gm of body weight. The amount of DMSO was approximately 1% of total volume. […]

For series [3] the following is noted: FIG. 1 dose-response comparison; cited from earlier work.
Series [4] has as its system benzodiazepines binding sites. Particulars: cited from earlier work.
Series [5] concerns GABAA receptors. Particulars: cited from earlier work.
In series [6] the test system is rats. The settings on record: doses up to 60-fold greater than doses producing anxiolytic and anticonvulsant actions; cited from earlier work.
For series [7] the following is noted: in nonhuman primates; cited from earlier work.
For series [8], the system named is patas monkeys. Particulars: cited from earlier work.

Where only a bound is given, the exact number is not on record here.

Turning to `Cc1nnc2n1-c1ccc(Cl)cc1C(c1ccccc1)=NC2` [alprazolam, 8chloro-1-methyl-6-phenyl-4-[1,2,4]triazolo[4,3a][1-4]benzodiazepine, reference compound], the “auditory PPI deficit in HRM” value in series [1] was “failed to revert the PPI deficit in HRM”. Besides, the “PPI of WTM” value in series [2] was “decreased PPI in WTM”. Also, the “sedation, amnesia, tolerance and dependence liability relative to doses with anxiolytic and anticonvulsant (therapeutic) actions” value in series [3] was “appear with doses that are very close to those that cause anxiolytic and anticonvulsant actions”.

On to `NC(=O)c1ncn2c1CN=C(c1ccccc1Br)c1cc(F)ccc1-2` [imidazenil, 6-(2 bromophenyl)-8-fluoro-4H-imidazo[1,5a][1,4]benzodiazepine-3-carboxamide], for which, in series [1] (doses of imidazenil (0.3, 0.6 mg/kg) that correct the PPI deficit in HRM), the “overall startle level (sedative effect)” value is recorded as “fail to change the overall startle level”. In addition, in series [1], the “auditory PPI deficit in HRM” value is on record as “corrected the auditory PPI deficit in HRM”. The “PPI of WTM” value in series [2] is given as “no primary effects on the PPI of WTM”. Besides, the “affinity for benzodiazepines binding sites” value in series [4] was “high affinity”. Further, the “action on GABAA alpha1 subunit” value in series [5] (GABAA receptors containing alpha1 subunit) is on record as “does not act on GABAA α1 subunit”. The “efficacy at GABAA receptor subtypes” value in series [5] (at least eight subtypes of GABAA receptors tested) is reported as “partial agonist”. The “intensity of GABA-gated Cl- currents” value in series [5] was “never maximizes the intensity of GABA-gated Cl^− currents”. For the same compound, the “antagonism of sedative and amnestic actions of alprazolam” value is “antagonizes the sedative and amnestic actions of alprazolam” in series [6]; “antagonizes the sedative and amnestic actions of alprazolam” in series [8] (monkeys, doses up to 60-fold greater than doses producing anxiolytic and anticonvulsant actions). Moreover, the “T 1/2 (clearance rate)” value in series [7] was above 6 h. Besides, the “tolerance to the effects during treatment” value in series [8] (patas monkeys, seventeen day treatment) was “no tolerance”. Further, the “sedation, amnesia, tolerance and dependence liability relative to doses with anxiolytic and anticonvulsant (therapeutic) actions” value in series [3] is on record as “virtually undetectable”.
